Columns and labels:
Assay type in all cases: cell-based
[1] = tested on: human Keratinocytes (HaCaT line); test: Metabolic activity of human keratinocytes (HaCaT line)
Protocol: In Vitro Effects of Experimental Compound ^85Rbe-E2 on metabolic activity of human Keratinocytes
(§1) Proliferative and metabolic activity of cells was determined by the colorimetric method.
(§2) The metabolic activity of the cells (i.e., the number of living cells) was assessed by MTT staining.
(§3) 24 hours after the last reagent, the cells were seeded at a concentration of 1×10^4 cells/well in wells of a 96-well plate in complete DMEM nutrient medium with 10% FBS and 40 μg/ml gentamicin. The cells were cultured in a humidified atmosphere at 5% CO2 and 37° C. for 24 hours. After 24 hours, various doses of experimental substances were added to the respective wells. The cells were incubated at 37° C. and 5% CO2 for an additional 72 hours.
(§4) Upon completion of the incubation with the preparations, the proliferative and metabolic activity of the cells in the experiment was evaluated by the colorimetric method by staining MTT cells:
(§5) 10 μl of the MTT solution (5 mg/ml of the dye in phosphate-buffered saline) was added to each well of the plate; the plate was incubated in a CO2 incubator at 37° C. for 3 hours. After that, the medium was removed from the wells, and the formed tetraformazan crystals were dissolved in 100 μl of dimethylsulfoxide.
(§6) When MTT was used, the results were evaluated using a multi-well spectrophotometer at an excitation wavelength of 540 nm. The percentage of viable cells was calculated by the formula: IR=(A540(experiment)/A540(control))×100%.

Normal Human Fibroblasts = test: Metabolic activity of normal human fibroblasts (MTT assay)
Protocol: In Vitro Assessment of the Effects of Experimental Compound ^85Rbe-E2 on metabolic Activity of Normal Human Fibroblasts (MTT Assay)
In Vitro Assessment of the Effects of E2+^85Rbe on Metabolic Activity of Normal Human Fibroblasts (MTT Assay)
as §1, §2, §3, §4, §5, §6

[2] = tested on: Mouse melanoma cells (MM-4 cell line); test: Cytotoxic effect on melanoma cells, single agents (crystal violet)
Protocol: Materials and Methods: Mouse melanoma cells (MM-4 cell line) were seeded into 96-well plates (TPP, Italy) in DMEM (High Glucose w/L-Glutamine w/o Sodium Pyruvate; Biowest, France) supplemented with 10% newborn calf serum (Biowest, France) and […] gentamicin (Sigma, USA) at a seeding density of 5×10^4 cells/ml. The cells were then cultured in an incubator with a humidified atmosphere of 5% CO2 in air at 37° C. 24 hours after the cells were seeded, a compound according to the invention that comprises ^85Rb-enriched rubidium salt of N-benzoyl-N′-(4-toluenesulfonyl)-o-phenylenediamine of formula I was added into the appropriate wells. ^85Rbe-E2 was used at the following doses: 2.0 μg/ml, 1.0 μg/ml, 0.5 μg/ml (each is the final concentration of ^85Rbe after addition to the well). The cytotoxic effect was determined by counting the number of live cells observed after treatment, expressed as a percentage of the number of live cells observed/counted in the control (cells seed in the well and not treated). Control cells were not treated. For each concentration, the experiment was carried out twice. The effects of the drugs were evaluated visually, which allowed us to examine the morphological pattern of the cytotoxic action of the drugs, and by staining the cells with crystal violet, followed by OD measurement at an excitation wavelength of 540 nm using a MultiScan spectrophotometer. For comparison, a parallel experiment was carried out with the use of a known antitumor drug cisplatin and a compound of rubidium salt of N-benzoyl-N′-(4-toluenesulfonyl)-o-phenylenediamine of formula I which comprised a naturally-abundant mixture of isotopes of rubidium instead of being enriched for the ^85Rb isotope.

Mouse Bone Marrow Cells = test: Cytotoxic/cytostatic effects on mouse bone marrow cells (MTT assay)
Protocol: In Vitro Assessment of Cytotoxic/Cytostatic Effects of Experimental Compound ^85Rbe-E2 on Mouse Bone Marrow Cells
as §1, §2, §3, §4, §5, §6

## Cc1ccc(S(=O)(=O)[N-]c2ccccc2NC(=O)c2ccccc2)cc1.[Rb+] [E2 + Rb, rubidium salt of N-benzoyl-N′-(4-toluenesulfonyl)-o-phenylenediamine]
[1]; 16 ng/ml
  Metabolic activity of cells, %: 104.7 ± 3.2%
[1]; 31 ng/ml
  Metabolic activity of cells, %: 99.2 ± 12.5%
[1]; 62 ng/ml
  Metabolic activity of cells, %: 97.3 ± 4.1%
[1]; 0.13 μg/ml
  Metabolic activity of cells, %: 87.5 ± 6.7%
[1]; 0.25 μg/ml
  Metabolic activity of cells, %: 95 ± 1.7%
[1]; 0.5 μg/ml
  Metabolic activity of cells, %: 103 ± 2.7%
[1]; 1 μg/ml
  Metabolic activity of cells, %: 130 ± 2%
Normal Human Fibroblasts; 2.5 μg/ml
  Metabolic activity of cells, %: 128.2 ± 8.3%
Normal Human Fibroblasts; 5 μg/ml
  Metabolic activity of cells, %: 103.4 ± 9.3%
Normal Human Fibroblasts; 10 μg/ml
  Metabolic activity of cells, %: 104.6 ± 14.2%
Normal Human Fibroblasts; 20 μg/ml
  Metabolic activity of cells, %: 96.8 ± 9.8%
Normal Human Fibroblasts; 38 μg/ml
  Metabolic activity of cells, %: 98.8 ± 7.1%
Normal Human Fibroblasts; 75 μg/ml
  Metabolic activity of cells, %: 97.7 ± 7.5%
Normal Human Fibroblasts; 150 μg/ml
  Metabolic activity of cells, %: 99.3 ± 3.2%
[2]; 0.5 μg/ml of rubidium (85Rbe or Rb)
  Number of cells after their treatment with the drug, %: 90.6 ± 0.9%
[2]; 1.0 μg/ml of rubidium (85Rbe or Rb)
  Number of cells after their treatment with the drug, %: 84.9 ± 0.9%
[2]; 2.0 μg/ml of rubidium (85Rbe or Rb)
  Number of cells after their treatment with the drug, %: 62.1 ± 0.8%
[2]; 0.5-2.0 μg rubidium/ml
  Activity against tumor cells compared with the 85Rb-enriched salt: significantly lower activity against tumor cells
Mouse Bone Marrow Cells; 1.25 μg/ml
  Metabolic activity of cells, %: 111.2 ± 6.6%
Mouse Bone Marrow Cells; 2.5 μg/ml
  Metabolic activity of cells, %: 106.8 ± 6%
Mouse Bone Marrow Cells; 5 μg/ml
  Metabolic activity of cells, %: 106.7 ± 11.8%
Mouse Bone Marrow Cells; 10 μg/ml
  Metabolic activity of cells, %: 99.3 ± 4.7%
Mouse Bone Marrow Cells; 20 μg/ml
  Metabolic activity of cells, %: 88 ± 3.5%
Mouse Bone Marrow Cells; 38 μg/ml
  Metabolic activity of cells, %: 96.2 ± 4.4%
Mouse Bone Marrow Cells; 75 μg/ml
  Metabolic activity of cells, %: 105.2 ± 7.8%
Mouse Bone Marrow Cells; 150 μg/ml
  Metabolic activity of cells, %: 107.1 ± 3.8%

— US11286236B2, “Compound, agent and composition for the suppression of cancer growth” (Vector Vitale IP LLC, priority 2018, dated 2022)
